# PMC5148686 (European journal of medicinal chemistry, 2016)
# “Also recorded” adds a separate entry of the source.
# Experiments:
# [1] = molecular target: human dopamine D2 receptor (Homo sapiens, UniProt P14416); assay: PDSP radioligand binding assay at dopamine D2 receptor; settings: primary assay at 10 μM; not progressed to secondary assay
# [2] = molecular target: dopamine D1 receptor (Macaca mulatta, UniProt O77680); assay: [35S]GTPγS binding stimulation in HEK293-rh D1 cells; type: cell-based, rhesus macaque; settings: compared with dopamine as full agonist
# [3] = molecular target: T1, dopamine D3 receptor (Homo sapiens, UniProt P35462); assay: [35S]GTPγS binding in CHO-hD3 cells; type: cell-based; settings: compared with dopamine as full agonist
# [4] = molecular target: T1, dopamine D3 receptor; assay: PDSP radioligand binding assay at dopamine D3 receptor; settings: versus 22c
# Chain of human dopamine D2 receptor (P14416 whole entry): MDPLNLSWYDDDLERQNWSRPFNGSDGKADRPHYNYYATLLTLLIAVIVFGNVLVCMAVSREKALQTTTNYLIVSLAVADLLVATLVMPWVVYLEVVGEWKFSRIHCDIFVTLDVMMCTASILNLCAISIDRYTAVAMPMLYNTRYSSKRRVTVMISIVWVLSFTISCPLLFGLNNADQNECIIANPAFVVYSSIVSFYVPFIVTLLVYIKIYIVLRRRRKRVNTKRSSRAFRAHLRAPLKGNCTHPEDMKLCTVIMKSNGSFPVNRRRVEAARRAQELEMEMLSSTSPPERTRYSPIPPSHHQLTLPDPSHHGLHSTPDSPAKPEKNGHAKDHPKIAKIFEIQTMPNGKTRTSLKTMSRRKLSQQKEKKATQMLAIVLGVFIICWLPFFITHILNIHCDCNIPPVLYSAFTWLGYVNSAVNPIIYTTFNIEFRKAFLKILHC
# T1 sequence (P35462 whole entry): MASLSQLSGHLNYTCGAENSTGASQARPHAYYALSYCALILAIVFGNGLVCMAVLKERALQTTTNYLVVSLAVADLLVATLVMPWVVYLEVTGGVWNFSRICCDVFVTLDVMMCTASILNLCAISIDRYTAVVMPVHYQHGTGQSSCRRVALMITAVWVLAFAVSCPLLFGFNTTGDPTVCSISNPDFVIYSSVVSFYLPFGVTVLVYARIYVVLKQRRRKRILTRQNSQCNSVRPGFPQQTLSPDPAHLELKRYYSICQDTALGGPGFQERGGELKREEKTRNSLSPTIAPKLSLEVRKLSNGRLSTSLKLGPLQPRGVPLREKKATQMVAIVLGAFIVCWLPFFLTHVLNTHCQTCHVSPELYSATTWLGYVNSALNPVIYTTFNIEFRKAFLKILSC
# Chain of dopamine D1 receptor (O77680 whole entry): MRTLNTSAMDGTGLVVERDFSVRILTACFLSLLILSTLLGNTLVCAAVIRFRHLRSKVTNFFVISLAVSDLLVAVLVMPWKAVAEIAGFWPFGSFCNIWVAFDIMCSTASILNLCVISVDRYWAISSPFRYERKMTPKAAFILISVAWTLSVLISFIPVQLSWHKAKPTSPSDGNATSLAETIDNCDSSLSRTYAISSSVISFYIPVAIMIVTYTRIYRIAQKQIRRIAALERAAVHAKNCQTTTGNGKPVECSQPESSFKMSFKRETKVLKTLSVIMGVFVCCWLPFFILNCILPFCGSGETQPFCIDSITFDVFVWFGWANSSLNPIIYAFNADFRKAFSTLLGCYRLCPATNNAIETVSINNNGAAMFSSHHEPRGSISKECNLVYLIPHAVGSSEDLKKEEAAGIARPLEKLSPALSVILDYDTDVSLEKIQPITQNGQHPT
smiles,measurement,setting,value
"CCOc1c(O)cc(Br)c2c1CN1CCc3cc(OC)c(O)cc3[C@@H]1C2 [Compound 20a, (S)-12-bromo-9-ethoxy-3-methoxy-5,8,13,13a-tetrahydro-6H-isoquinolino[3,2-a]isoquinoline-2,10-diol]",D2 receptor affinity in the primary assay,[1],did not show any appreciable D2 receptor affinity
"COCCOc1c(O)cc(Br)c2c1CN1CCc3cc(OC)c(O)cc3[C@@H]1C2 [Compound 20g, (S)-12-bromo-3-methoxy-9-(2-methoxyethoxy)-5,8,13,13a-tetrahydro-6H-isoquinolino[3,2-a]isoquinoline-2,10-diol]",D2 receptor affinity in the primary assay,[1],did not show any appreciable D2 receptor affinity; also recorded: no activity
"CCOc1c(O)ccc2c1CN1CCc3cc(OC)c(O)cc3[C@@H]1C2 [Compound 22a, (S)-9-ethoxy-3-methoxy-5,8,13,13a-tetrahydro-6H-isoquinolino[3,2-a]isoquinoline-2,10-diol]",D2 receptor affinity in the primary assay,[1],lacked any appreciable affinity
same,intrinsic activity at D1 receptor (stimulation of GTPγ-S binding),[2],lacked intrinsic activity
same,intrinsic activity at D3 receptor (stimulation of GTPγ-S binding),[3],lacked intrinsic activity
"CCCCOc1c(O)ccc2c1CN1CCc3cc(OC)c(O)cc3[C@@H]1C2 [Compound 22c, (S)-9-butoxy-3-methoxy-5,8,13,13a-tetrahydro-6H-isoquinolino[3,2-a]isoquinoline-2,10-diol]",D2 receptor affinity in the primary assay,[1],lacked any appreciable affinity
"CCCCCCOc1c(O)ccc2c1CN1CCc3cc(OC)c(O)cc3[C@@H]1C2 [Compound 22e, (S)-9-(hexyloxy)-3-methoxy-5,8,13,13a-tetrahydro-6H-isoquinolino[3,2-a]isoquinoline-2,10-diol]",D2 receptor affinity in the primary assay,[1],lacked any appreciable affinity
"COCCOc1c(O)ccc2c1CN1CCc3cc(OC)c(O)cc3[C@@H]1C2 [Compound 22g, (S)-3-methoxy-9-(2-methoxyethoxy)-5,8,13,13a-tetrahydro-6H-isoquinolino[3,2-a]isoquinoline-2,10-diol]",fold higher D3 affinity than n-butyloxy analogue 22c,[4],4 fold
